{"source": "patent US20080003215A1", "about": "“Use of pre-dissolved pristinamycin-type and polyether ionophore type antimicrobial agents in the production of ethanol” (priority 2006, published 2008)", "test": "Rate of dissolution of powdered virginiamycin in stirred water", "type": "physicochemical", "conditions": "0.1 gram of 5.2 to 10 micron average particle size powder in 4 liters of water, continuously stirred", "text": "The solubility of monensin, virginiamycin, and similar pristinamycin-type antimicrobial agents and polyether ionophore-type antimicrobial agents in water is very low. Much more important, however, is the rate of dissolution of small granular pristinamycin-type antimicrobial agents and polyether ionophore-type antimicrobial agents in water. A 0.1 gram sample of a 5.2 to 10 micron average particle size virginiamycin was placed in a beaker with 4 liters of water, and the composition was continuously stirred. The presence of undissolved crystals was very evident.", "data": [{"substance": "virginiamycin", "values": [{"measurement": "Time until only a few crystals remained visible (dissolution)", "value": "on the order of an hour"}]}]}
